1 compound from US20120034613A1, “Apparatus and Method for Testing Relationships Between Gene Expression and Physical Appearance of Skin” (NSE Products, Inc., priority 2010, published 2012) can be followed below.

This assay concerns stratum corneum. Briefly: Corneometry, moisture content of the stratum corneum, 12 week clinical study. It is filed as in vivo, human. Conditions: Left Ocular Bone; for Corneometer Mean: Baseline mean 56.49. An excerpt:
Corneometry measurements were taken on each subject's left ocular bone (in line with pupil) to measure the moisture content of the stratum corneum. All clinical and corneometer measurements and evaluations were taken at baseline, week 1 (visit 2), week 4 (visit 3), week 8 (visit 4) and week 12 (visit 5). Ultrasound and cutometer measurements and evaluations were taken at baseline, week 4 (visit 3), week 8 (visit 4) and week 12 (visit 5). Completed patient's diaries were reviewed for compliance at each visit. Mean clinical grading and instrumentation scores at each visit were statistically compared to baseline scores using paired t-test. Changes from baseline were considered significant at the p≦0.05 level. Mean percent change from baseline and incidence of positive responders were calculated for all attributes. Comparisons, based on the average from baseline, were made between the test materials using analysis of variance (ANOVA).

As to `OCc1ccccc1O[C@@H]1O[C@H](CO)[C@@H](O)[C@H](O)[C@H]1O` [Salicin, 2-(Hydroxymethyl)phenyl β-D-glucospyranoside], the “Corneometer Mean” value runs as follows: (Week 1) 60.54; (Week 4) 62.49; (Week 8) 63.91; (Week 12) 52.23. Also, the “Corneometer % Change” value is “(7.3%)” (Week 1 vs Baseline), “(10.6%)” (Week 4 vs Baseline), “(13.1%)” (Week 8 vs Baseline) and “(−7.5%)” (Week 12 vs Baseline).
